The results in this text go back to US20260240166A1, “ANTIMICROBIAL AND ANTIVIRAL, BIOLOGICALLY ACTIVE POLYMER COMPOSITES EFFECTIVE AGAINST SARS-COV-2 AND OTHER VIRAL, BACTERIAL AND FUNGAL TARGETS, AND RELATED METHODS, MATERIALS, COATINGS AND DEVICES” (priority 2019, published 2026).

The series is described as follows: Thermogravimetric analysis (thermal stability). It is filed as physicochemical. To be noted: thermogravimetric profile (FIG. 6).

As for benzalkonium chloride, the “temperature to which stable / at which decomposition begins (TGA)” value is “about 200 °C”.
